Experimental data taken from patent US8030321B2, “Benzofuro- and benzothienopyrimidine modulators of the histamine H4 receptor” (Janssen Pharmaceutica, NV, priority 2006, dated 2011).
Structures can show the parent of a compound that is named as a salt.

What follows are molecules tested against T1, human histamine H4 receptor (Homo sapiens, UniProt Q9H3N8) (assay: Binding Assay on Recombinant Human Histamine H4 Receptor). Conditions: not given.
T1 construct: expressed in transfected cells; host or cells: SK-N-MC cells or COS7 cells, transiently transfected; cell membranes used
T1 sequence (Q9H3N8 whole entry): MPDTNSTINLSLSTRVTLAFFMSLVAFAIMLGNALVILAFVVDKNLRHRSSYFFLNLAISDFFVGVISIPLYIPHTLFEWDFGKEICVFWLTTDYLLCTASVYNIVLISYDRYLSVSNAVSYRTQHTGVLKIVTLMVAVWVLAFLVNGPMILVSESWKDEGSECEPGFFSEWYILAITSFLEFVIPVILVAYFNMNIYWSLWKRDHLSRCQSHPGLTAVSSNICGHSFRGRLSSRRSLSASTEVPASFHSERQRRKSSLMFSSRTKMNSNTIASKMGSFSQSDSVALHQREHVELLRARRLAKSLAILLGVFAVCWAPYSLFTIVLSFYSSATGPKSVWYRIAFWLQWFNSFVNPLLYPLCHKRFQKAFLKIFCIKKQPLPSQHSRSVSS
Description: Binding Assay on Recombinant Human Histamine H4 Receptor
SK-N-MC cells or COS7 cells were transiently transfected with pH4R and grown in 150 cm^2 tissue culture dishes. Cells were washed with saline solution, scraped with a cell scraper and collected by centrifugation (1000 rpm, 5 min). Cell membranes were prepared by homogenization of the cell pellet in 20 mM Tris-HCl with a polytron tissue homogenizer for 10 sec at high speed. Homogenate was centrifuged at 1000 rpm for 5 min at 4° C. […] The final pellet was resuspended in 50 mM Tris-HCl. Cell membranes were incubated with ^3H-histamine (5-70 nM) in the presence or absence of excess histamine (10,000 nM). […] Membranes were harvested by rapid filtration over Whatman GF/C filters and washed 4 times with ice-cold 50 mM Tris HCl. Filters were then dried, mixed with scintillant and counted for radioactivity. SK-N-MC or COS7 cells expressing human histamine H4 receptor were used to measure the affinity of binding of other compounds and their ability to displace ^3H-ligand binding by incubating the above-described reaction in the presence of various concentrations of inhibitor or compound to be tested.

In order of rising Ki:
1. Nc1nc(N2CC3CCCNC3C2)c2oc3ccc(Cl)cc3c2n1 (stereo not drawn) [Example 9, 8-Chloro-4-(octahydro-pyrrolo[3,4-b]pyridin-6-yl)-benzo[4,5]furo[3,2-d]pyrimidin-2-ylamine]  2.1 nM
2. Nc1nc(N2C[C@H]3CCCN[C@H]3C2)c2oc3ccc(Cl)cc3c2n1 [Example 82, (R,R)-8-Chloro-4-(octahydro-pyrrolo[3,4-b]pyridin-6-yl)-benzo[4,5]furo[3,2-d]pyrimidin-2-ylamine citrate salt]  21 nM
3. Nc1nc(N2CC3CCCNC3C2)c2sc3cc(Br)ccc3c2n1 (stereo not drawn) [Example 46, 7-Bromo-4-(octahydro-pyrrolo[3,4-b]pyridin-6-yl)-benzo[4,5]thieno[3,2-d]pyrimidin-2-ylamine trifluoroacetic acid salt]  28 nM
4. Nc1nc(N2C[C@@H]3C[C@H]2CN3)c2sc3cc(Cl)ccc3c2n1 [Example 62, (S,S)-7-Chloro-4-(2,5-diaza-bicyclo[2.2.1]hept-2-yl)-benzo[4,5]thieno[3,2-d]pyrimidin-2-ylamine trifluoroacetic acid salt]  880 nM

Same assay, conditions: competition binding with 3H-histamine (5 nM), membranes of SK-N-MC or COS7 cells expressing human H4 receptor; Cheng-Prusoff, KD 5 nM; average of results obtained; read-out: Ki

Compared with `Nc1nc(N2CC(N)C2)c2oc3cccc(Cl)c3c2n1` [Example 156, 4-(3-Amino-azetidin-1-yl)-9-chloro-benzo[4,5]furo[3,2-d]pyrimidin-2-ylamine trifluoroacetic acid salt], `Nc1nc(N2CC[C@@H](N)C2)c2oc3ccc(Cl)cc3c2n1` [Example 25, (R)-4-(3-Amino-pyrrolidin-1-yl)-8-chloro-benzo[4,5]furo[3,2-d]pyrimidin-2-ylamine trifluoroacetic acid salt] is lower in Ki: over 10000 nM for the first, 2.4 nM for the second. The second binds more tightly here.

First: CN(C)[C@@H]1CCN(c2nc(N)nc3c2oc2ccc(Cl)cc23)C1 [Example 24, (R)-8-Chloro-4-(3-dimethylamino-pyrrolidin-1-yl)-benzo[4,5]furo[3,2-d]pyrimidin-2-ylamine trifluoroacetic acid salt]
Second: CNC1CCN(c2nc(N)nc3c2oc2ccc(Cl)cc23)C1 (stereo not drawn) [Example 12, 8-Chloro-4-(3-methylamino-pyrrolidin-1-yl)-benzo[4,5]furo[3,2-d]pyrimidin-2-ylamine]
The Ki of the first is 6.4-fold higher: 5.5 nM for the first, 0.86 nM for the second. The second binds more tightly here.

Compared with `Nc1nc(N2CCNCC2)c2oc3ccc(C(F)(F)F)cc3c2n1` [Example 142, 4-piperazin-1-yl-8-trifluoromethyl-benzo[4,5]furo[3,2-d]pyrimidin-2-ylamine trifluoroacetic acid salt], `Nc1nc(N2CCNCC2)c2oc3cccc(C(F)(F)F)c3c2n1` [Example 90, 4-piperazin-1-yl-9-trifluoromethyl-benzo[4,5]furo[3,2-d]pyrimidin-2-ylamine citrate salt] is 9.2-fold higher in Ki: 13 nM for the first, 120 nM for the second.

Going from `COc1ccc2oc3c(N4CCC[C@H](N)C4)nc(N)nc3c2c1` [Example 107, (S)-4-(3-Amino-piperidin-1-yl)-8-methoxy-benzo[4,5]furo[3,2-d]pyrimidin-2-ylamine trifluoroacetic acid salt] to `Nc1nc(N2CCC[C@@H](N)C2)c2oc3ccc(Cl)cc3c2n1` [Example 28, (R)-4-(3-Amino-piperidin-1-yl)-8-chloro-benzo[4,5]furo[3,2-d]pyrimidin-2-ylamine trifluoroacetic acid salt], the Ki falls from 360 nM to 110 nM (3.3-fold). The second binds more tightly here.

Compared with `CN1CCN(c2nc(N)nc3c2oc2cccc(F)c23)CC1` [Example 135, 9-Fluoro-4-(4-methyl-piperazin-1-yl)-benzo[4,5]furo[3,2-d]pyrimidin-2-ylamine trifluoroacetic acid salt], `CN1CCN(c2nc(N)nc3c2oc2cccc(C(F)(F)F)c23)CC1` [Example 91, 4-(4-Methyl-piperazin-1-yl)-9-trifluoromethyl-benzo[4,5]furo[3,2-d]pyrimidin-2-ylamine citrate salt] is 2.4-fold higher in Ki: 21 nM for the first, 50 nM for the second. The first binds more tightly here.

`COc1cccc2oc3c(N4CCNCC4)nc(N)nc3c12` [Example 86, 9-Methoxy-4-piperazin-1-yl-benzo[4,5]furo[3,2-d]pyrimidin-2-ylamine trifluoroacetic acid salt] and `C[C@H]1CNCCN1c1nc(N)nc2c1oc1ccc(Cl)cc12` [Example 131, (S)-8-Chloro-4-(2-methyl-piperazin-1-yl)-benzo[4,5]furo[3,2-d]pyrimidin-2-ylamine trifluoroacetic acid salt] are within 1.5-fold of each other in Ki: 47 nM for the first, 60 nM for the second.

Going from `CN[C@@H]1CCN(c2nc(N)nc3c2oc2ccc(C(F)(F)F)cc23)C1` [Example 140, (R)-4-(3-Methylamino-pyrrolidin-1-yl)-8-trifluoromethyl-benzo[4,5]furo[3,2-d]pyrimidin-2-ylamine trifluoroacetic acid salt] to `CN[C@@H]1CCN(c2nc(N)nc3c2oc2ccc(F)cc23)C1` [Example 39, (R)-8-Fluoro-4-(3-methylamino-pyrrolidin-1-yl)-benzo[4,5]furo[3,2-d]pyrimidin-2-ylamine trifluoroacetic acid salt], the Ki rises from 1 nM to 2.3 nM (2.3-fold). The first binds more tightly here.

First: COc1ccc2oc3c(N4C[C@@H]5C[C@H]4CN5)nc(N)nc3c2c1 [Example 113, (S,S)-4-(2,5-Diaza-bicyclo[2.2.1]hept-2-yl)-8-methoxy-benzo[4,5]furo[3,2-2]pyrimidin-2-ylamine trifluoroacetic acid salt]
Second: Nc1nc(N2CC[C@@H]3CNC[C@@H]32)c2oc3ccc(Cl)cc3c2n1 (relative stereo) [Example 95, (cis)-8-Chloro-4-(hexahydro-pyrrolo[3,4-b]pyrrol-1-yl)-benzo[4,5]furo[3,2-d]pyrimidin-2-ylamine trifluoroacetic acid salt]
The Ki of the first is 3-fold higher: 420 nM for the first, 140 nM for the second.

Going from `CN[C@@H]1CCN(c2nc(N)nc3c2sc2ccc(Cl)cc23)C1` [Example 66, (R)-8-Chloro-4-(3-methylamino-pyrrolidin-1-yl)-benzo[4,5]thieno[3,2-d]pyrimidin-2-ylamine trifluoroacetic acid salt] to `CN[C@H]1CCN(c2nc(N)nc3c2sc2cc(Br)ccc23)C1` [Example 57, (S)-7-Bromo-4-(3-methylamino-pyrrolidin-1-yl)-benzo[4,5]thieno[3,2-d]pyrimidin-2-ylamine trifluoroacetic acid salt], the Ki rises from 1 nM to 150 nM (150-fold). The first binds more tightly here.

Going from `CN(CCN)c1nc(N)nc2c1oc1ccc(Cl)cc12` [Example 96, N^4-(2-Amino-ethyl)-8-chloro-N^4-methyl-benzo[4,5]furo[3,2-d]pyrimidine-2,4-diamine trifluoroacetic acid salt] to `CCN[C@@H]1CCN(c2nc(N)nc3c2oc2ccc(Cl)cc23)C1` [Example 73, (R)-8-Chloro-4-(3-ethylamino-pyrrolidin-1-yl)-benzo[4,5]furo[3,2-d]pyrimidin-2-ylamine trifluoroacetic acid salt], the Ki rises from 2.8 nM to 75 nM (27-fold). The first binds more tightly here.

First: CN[C@@H]1CCN(c2nc(N)nc3c2sc2cc(Br)ccc23)C1 [Example 56, (R)-7-Bromo-4-(3-methylamino-pyrrolidin-1-yl)-benzo[4,5]thieno[3,2-d]pyrimidin-2-ylamine trifluoroacetic acid salt]
Second: CN[C@@H]1CCN(c2nc(N)nc3c2oc2ccc(F)c(F)c23)C1 [Example 148, (R)-8,9-Difluoro-4-(3-methylamino-pyrrolidin-1-yl)-benzo[4,5]furo[3,2-d]pyrimidin-2-ylamine trifluoroacetic acid salt]
The Ki of the first is 1.6-fold lower: 25 nM for the first, 39 nM for the second.

`CCN[C@H]1CCCN(c2nc(N)nc3c2oc2ccc(Cl)cc23)C1` [Example 72, (S)-8-Chloro-4-(3-ethylamino-piperidin-1-yl)-benzo[4,5]furo[3,2-d]pyrimidin-2-ylamine trifluoroacetic acid salt] was tested, and the Ki was 343 nM.
